Measurements as given in ChEMBL document CHEMBL2424615, “Design, synthesis, and characterization of novel tetrahydropyran-based bacterial topoisomerase inhibitors with potent anti-gram-positive activity” (J Med Chem, 2013).

Tests used:
[1] = Inhibition of wild type Escherichia coli ATCC 25922 DNA gyrase subunit 2GyrA/2GyrB assessed as pBR322 supercoiling after 1 hr
[2] = tested on: Streptococcus pneumoniae; assay: Antibacterial activity against wild type Streptococcus pneumoniae ATCC 49619 assessed as growth inhibition by broth microdilution method; assay type: functional
[3] = tested on: Escherichia coli; assay: Antibacterial activity against wild type Escherichia coli ATCC 25922 assessed as growth inhibition by broth microdilution method; assay type: functional
[4] = target: DNA gyrase (Staphylococcus aureus, UniProt P0A0K8+P20831); assay: Inhibition of wild type Staphylococcus aureus DNA gyrase subunit 2GyrA/2GyrB assessed as pBR322 supercoiling after 1 hr; assay type: protein-complex assay
[5] = target: hERG (KCNH2) (Homo sapiens, UniProt Q12809); assay: Inhibition of human ERG expressed in CHO cells at 10 uM after 3 mins by patch clamp assay relative to control; assay type: cell-based; conditions: CHO cells that express human ERG
[6] = tested on: Staphylococcus aureus; assay: Antibacterial activity against NXL-101-resistant Staphylococcus aureus A-234 harboring DNA gyrase subunit A D83N mutant assessed as growth inhibition by broth microdilution method; assay type: functional
[7] = target: Topoisomerase IV (Staphylococcus aureus, UniProt P0C1S7+P0C1U9); assay: Inhibition of wild type Staphylococcus aureus ATCC 29213 topoisomerase-4 subunit 2GrlA/2GrlB assessed as pBR322 relaxation after 1 hr; assay type: protein-complex assay
[8] = tested on: Staphylococcus aureus; assay: Antibacterial activity against wild type Staphylococcus aureus ATCC 29213 assessed as growth inhibition by broth microdilution method; assay type: functional
[9] = Inhibition of wild type Escherichia coli ATCC 25922 DNA topoisomerase-4 subunit 2ParC/2ParE assessed as pBR322 relaxation after 1 hr
[10] = tested on: Pseudomonas aeruginosa; assay: Antibacterial activity against wild type Pseudomonas aeruginosa ATCC 27853 assessed as growth inhibition by broth microdilution method; assay type: functional

| Compound | IC50 [1] [nM] | MIC [2] [µg/mL] | MIC [3] [µg/mL] | IC50 [4] [nM] | inhibition at 0.05 h, 10 µM [5] [%] | MIC [6] [µg/mL] | IC50 [7] [µM] | MIC [8] [µg/mL] | IC50 [9] [nM] | MIC [10] [µg/mL] |
| --- | --- | --- | --- | --- | --- | --- | --- | --- | --- | --- |
| COc1ccc2ncc(F)c([C@@H](O)[C@H](O)[C@@H]3CC[C@@H](NCc4ccc5c(n4)NC(=O)CS5)CO3)c2c1 | 2000 | 0.25 | 4 | 125 | 15 | > 8 | 8 | 0.25 | 125 | > 8 |
| COc1cc(F)c2nccc([C@@H](O)[C@H](O)[C@@H]3CC[C@@H](NCc4ccc5c(n4)NC(=O)CS5)CO3)c2c1 | 2000 | 0.25 | 4 | 125 | 20 | 4 | 8 | 0.03 | 125 | > 8 |
| COc1ccc2nccc([C@@H](O)[C@H](O)[C@@H]3CC[C@@H](NCc4ccc5c(n4)NC(=O)CS5)CO3)c2c1 | 2000 | 0.25 | 4 | 250 | 24 | > 8 | 8 | 0.25 | 125 | > 8 |
| COc1cnc2ccc(F)c([C@@H](O)[C@H](O)[C@@H]3CC[C@@H](NCc4cc5c(cn4)OCCS5)CO3)c2n1 | 8000 | 0.03 | 8 | 30 | 33 | 2 | 8 | ≤ 0.015 | 125 | > 8 |
| COc1ccc2nccc(/C=C/[C@@H]3CC[C@@H](NCc4ccc5c(n4)NC(=O)CS5)CO3)c2n1 | 500 | 1 | 4 | 125 | 94 | 4 | 2 | 0.125 | 30 | > 8 |
| COc1ccc2nccc(/C=C/[C@@H]3CC[C@@H](NCc4cc5c(cn4)OCCO5)CO3)c2n1 | > 8000 | 1 | > 8 | 125 | 88 | > 8 | > 8 | 0.25 | – | > 8 |
| COc1ccc2nccc(CC[C@@H]3CC[C@@H](NCc4cc5c(cn4)OCCO5)CO3)c2n1 | 8000 | 0.5 | 8 | < 30 | 82 | 4 | > 8 | 0.06 | 125 | > 8 |
| COc1ccc2nccc([C@@H](O)[C@H](O)[C@@H]3CC[C@@H](NCc4ccc5c(n4)NC(=O)CS5)CO3)c2n1 | 500 | 0.06 | 1 | < 30 | 36 | 0.5 | 0.5 | 0.03 | 125 | > 8 |
| COc1ccc2nccc([C@@H](O)[C@H](O)[C@@H]3CC[C@@H](NCc4cc5c(cn4)OCCO5)CO3)c2n1 | 8000 | 0.5 | 8 | 30 | 27 | 4 | 8 | 0.06 | 125 | > 8 |
| COc1ccc2nccc([C@@H](O)[C@H](O)[C@H]3CC[C@H](NCc4ccc5c(n4)NC(=O)CS5)CO3)c2n1 | 8000 | 0.5 | 4 | 125 | 45 | > 8 | > 8 | 0.5 | 125 | > 8 |
| COc1ccc2nccc([C@H](O)[C@@H](O)[C@@H]3CC[C@@H](NCc4ccc5c(n4)NC(=O)CS5)CO3)c2n1 | 8000 | 1 | > 8 | 500 | 93 | > 8 | > 8 | 1 | 125 | > 8 |
| COc1ccc2nccc([C@H](O)[C@@H](O)[C@H]3CC[C@H](NCc4ccc5c(n4)NC(=O)CS5)CO3)c2n1 | 500 | 0.03 | 1 | 30 | 70 | 0.5 | 8 | 0.03 | 125 | > 8 |
| COc1ccc2cccc([C@@H](O)[C@H](O)[C@@H]3CC[C@@H](NCc4ccc5c(n4)NC(=O)CS5)CO3)c2n1 | 125 | 0.06 | 2 | 30 | 72 | 0.25 | 0.5 | 0.03 | 125 | > 8 |
| COc1cnc2cccc([C@@H](O)[C@H](O)[C@@H]3CC[C@@H](NCc4ccc5c(n4)NC(=O)CS5)CO3)c2c1 | 2000 | 0.25 | 8 | 125 | 17 | > 8 | 0.5 | 0.25 | 125 | > 8 |
| COc1cnc2ccc(F)c([C@@H](O)[C@H](O)[C@@H]3CC[C@@H](NCc4ccc5c(n4)NC(=O)CS5)CO3)c2n1 | 500 | 0.5 | 4 | 30 | 44 | 1 | 2 | 0.06 | 125 | > 8 |
| COc1ccc2nccc(OC[C@@H]3CC[C@@H](NCc4ccc5c(n4)NC(=O)CS5)CO3)c2n1 | 2000 | 0.25 | 4 | 125 | 70 | 4 | 8 | 0.5 | – | > 8 |
| COc1ccc2nccc(OC[C@@H]3CC[C@@H](NCc4cc5c(cn4)OCCO5)CO3)c2n1 | > 8000 | 4 | > 8 | 500 | 19 | > 8 | > 8 | 2 | – | > 8 |
| COc1ccc2nccc(NC(=O)[C@@H]3CC[C@@H](NCc4ccc5c(n4)NC(=O)CS5)CO3)c2n1 | 500 | 0.5 | > 8 | 125 | 99 | > 8 | 2 | 0.25 | – | > 8 |
| COc1ccc2nccc(NC(=O)[C@@H]3CC[C@@H](NCc4cc5c(cn4)OCCO5)CO3)c2n1 | > 8000 | 0.25 | > 8 | 125 | 71 | > 8 | > 8 | 0.125 | – | > 8 |
| COc1ccc2nccc(C(O)C[C@@H]3CC[C@@H](NCc4cc5c(cn4)OCCO5)CO3)c2n1 (mixture of isomers) | > 8000 | 0.125 | > 8 | 125 | 66 | > 8 | > 8 | 0.03 | – | > 8 |
